Several values for one entry are separate records, joined by “and”; a condition that tells them apart may be missing. Identical values can stand only once.

For one experiment, the target named is T1, PYR1^WIN-M (Arabidopsis thaliana, UniProt O49686, A160I/D26G/E4G/F159A/H60P/K59Q/N90S/Y23H).
T1 construct: made in house
T1 sequence (O49686 with tags, fused parts or gaps E4G/Y23H/D26G/K59Q/H60P/N90S/F159A/A160I): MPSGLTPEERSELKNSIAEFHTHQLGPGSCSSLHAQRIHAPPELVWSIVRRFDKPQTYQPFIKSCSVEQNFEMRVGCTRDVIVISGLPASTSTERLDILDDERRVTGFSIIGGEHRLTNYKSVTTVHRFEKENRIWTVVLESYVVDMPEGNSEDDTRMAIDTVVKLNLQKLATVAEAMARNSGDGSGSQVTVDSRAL
In words: ELISA-like plate assay, immobilized PYR1^WIN-M, biotinylated ΔN-HAB1^T+. In kind it is binding. The note with it: for ELISA signal generation, receptor cross-reactivity (source data): replicates; for LOD (lower limit of detection): fivefold dilution. On the technique in general: In an ELISA, binding on a coated surface is turned into a signal by an enzyme label.

A further experiment addresses T2, PYR1^PIRI (Arabidopsis thaliana, UniProt O49686, A160T/E130G/F159T/K59R/N119S/S122Q/S92M/V174A).
T2 construct: >PYR1-PIRI; expressed in transfected cells; host or cells: Saccharomyces cerevisiae BY4742
The experiment is described as follows: Split NanoLuc luciferase complementation in yeast, NLuc^N-PYR1^PIRI/NLuc^C-HAB1.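 On split luciferase luminescence (Fig. 4c source data): relative luminescence averaged over the signal plateau.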 Format: cell-based. The note with it: replicates; for split luciferase luminescence (Fig. 4c source data): ligand pirimiphos-methyl.

A further experiment deals with PYR1^DIAZI (Arabidopsis thaliana, UniProt O49686, A160V/E8G/F108Y/F159G/L87M/M158V/V81Y). The experiment is described as follows: Split NanoLuc luciferase complementation in yeast, NLuc^N-PYR1^DIAZI/NLuc^C-HAB1.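 On split luciferase luminescence (Fig. 4c source data): relative luminescence averaged over the signal plateau.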 Format: cell-based. More on the design: >PYR1-DIAZI; expressed in transfected cells; host or cells: Saccharomyces cerevisiae BY4742. The note with it: for Sensor signal (Figure 4f top), replicate values: 3 replicates; for split luciferase luminescence (Fig. 4c source data): ligand diazinon, replicates.
Chain of PYR1^DIAZI (Q9CAJ0 179-511): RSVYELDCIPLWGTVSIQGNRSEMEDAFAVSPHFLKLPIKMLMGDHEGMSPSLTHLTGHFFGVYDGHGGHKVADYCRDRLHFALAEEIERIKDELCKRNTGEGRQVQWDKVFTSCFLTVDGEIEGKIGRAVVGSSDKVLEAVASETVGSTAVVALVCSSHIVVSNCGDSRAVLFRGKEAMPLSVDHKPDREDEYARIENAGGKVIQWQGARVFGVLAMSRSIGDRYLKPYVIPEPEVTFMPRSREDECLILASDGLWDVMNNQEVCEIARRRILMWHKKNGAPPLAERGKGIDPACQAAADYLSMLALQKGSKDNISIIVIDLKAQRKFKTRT
Chain of PYR1^DIAZI (O49686 other isoform, or with tags, fused parts or gaps E8G/V81Y/L87M/F108Y/M158V/F159G/A160V): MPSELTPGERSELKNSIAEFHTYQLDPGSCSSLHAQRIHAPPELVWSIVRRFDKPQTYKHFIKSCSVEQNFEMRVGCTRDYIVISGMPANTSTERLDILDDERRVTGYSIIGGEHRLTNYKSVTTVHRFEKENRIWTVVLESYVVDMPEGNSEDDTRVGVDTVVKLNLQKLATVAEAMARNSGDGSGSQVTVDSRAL

T2 sequence (O49686 other isoform, or with tags, fused parts or gaps K59R/S92M/N119S/S122Q/E130G/F159T/A160T/V174A): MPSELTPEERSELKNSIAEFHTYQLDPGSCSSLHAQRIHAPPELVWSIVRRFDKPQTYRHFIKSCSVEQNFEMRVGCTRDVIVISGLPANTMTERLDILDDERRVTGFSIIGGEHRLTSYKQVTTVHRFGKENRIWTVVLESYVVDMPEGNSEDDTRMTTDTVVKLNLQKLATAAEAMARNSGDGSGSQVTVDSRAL
T2 sequence (Q9CAJ0 179-511, further chain): as the sequence (Q9CAJ0 179-511) above

With `CCCCCn1cc(-c2nc(CN(CC)CC)cs2)c2ccccc21` [PTI-1], the “ELISA signal generation, receptor cross-reactivity (source data)” value (shortened to “ELISA signal generation”) at PYR1^WIN-M (cannabinoid at 2 nM) was 0.097 and 0.112 and 0.193; on PYR1^WIN-M (cannabinoid at 2 μM), 0.105 and 0.089 and 0.091.

As for `CCCCCn1cc(C(=O)c2cccc3ccccc23)cc1-c1ccccc1C` [JWH-370], the “ELISA signal generation” value is 0.069 and 0.076 and 0.063 at PYR1^WIN-M (cannabinoid at 2 nM); 0.06 and 0.059 and 0.063 on PYR1^WIN-M (cannabinoid at 2 μM).

In the case of `CCCCCn1cc(C(=O)c2cccc3ccccc23)cc1-c1ccccc1` [JWH-145], the “ELISA signal generation” value on PYR1^WIN-M (cannabinoid at 2 nM) is 0.469 and 0.077 and 0.091; on PYR1^WIN-M (cannabinoid at 2 μM), 0.105 and 0.116 and 0.1.

`C=C(C)[C@@H]1CCC(C)=C[C@H]1c1c(O)cc(CCCCC)cc1O` [Cannabidiol]: the “ELISA signal generation” value on PYR1^WIN-M (cannabinoid at 2 nM) was 0.109 and 0.094 and 0.096; at PYR1^WIN-M (cannabinoid at 2 μM), 0.095 and 0.093 and 0.084.

Take `CCOP(=S)(OCC)Oc1ccc2c(C)c(Cl)c(=O)oc2c1` [Coumaphos]: the “Sensor signal (Figure 4f bottom), replicate values” (“Sensor signal (Figure 4f bottom)” for short) on PYR1^PIRI ([Agonist] 1e-5 nM) was 11.6429 and 18.6581 and 9.869; at PYR1^PIRI ([Agonist] 0.5 nM) it was 10.5853 and 39.7892 and 9.475; on PYR1^PIRI ([Agonist] 1 nM), 12.0486 and 19.9282 and 8.797; at PYR1^PIRI ([Agonist] 10 nM) it was 7.164 and 12.4287 and 9.583; at PYR1^PIRI ([Agonist] 100 nM) it was 8.8955 and 12.6369 and 17.1023; at PYR1^PIRI ([Agonist] 1000 nM), 9.4868 and 11.2169 and 22.673. For the same molecule, the “Sensor signal (Figure 4f bottom)” value was 12.3815 and 19.3959 and 83.5281 at PYR1^PIRI ([Agonist] 10000 nM); 9.584 and 13.286 and 71.6379 on PYR1^PIRI ([Agonist] 100000 nM). The “Sensor signal (Figure 4f top), replicate values” (“Sensor signal (Figure 4f top)” below) at PYR1^DIAZI ([Agonist] 1e-5 nM) is 16.388 and 9.752 and 14.788; at PYR1^DIAZI ([Agonist] 0.5 nM) it was 30.8829 and 12.1724 and 17.852; on PYR1^DIAZI ([Agonist] 1 nM) it was 36.8131 and 33.8683 and 15.2635; on PYR1^DIAZI ([Agonist] 10 nM), 15.4966 and 64.9896 and 15.1391; on PYR1^DIAZI ([Agonist] 100 nM) it was 12.996 and 65.6413 and 15.942; on PYR1^DIAZI ([Agonist] 1000 nM) it was 21.5139 and 73.8437 and 25.5745. For the same molecule, the “Sensor signal (Figure 4f top)” value at PYR1^DIAZI ([Agonist] 10000 nM) was 81.7848 and 47.8146 and 79.9027; at PYR1^DIAZI ([Agonist] 100000 nM), 105.044 and 22.805 and 29.2791.

For `CCCCCn1cc(C(=O)Cc2ccccc2)c2ccccc21` [JWH-167], the “ELISA signal generation” value was 0.146 and 0.078 and 0.09 on PYR1^WIN-M (cannabinoid at 2 nM); 0.075 and 0.092 and 0.077 at PYR1^WIN-M (cannabinoid at 2 μM).

Take `CCCc1ccc(C(=O)c2cn(CCC)c3ccccc23)c2ccccc12` [JWH-180]: the “ELISA signal generation” value is 0.104 and 0.071 and 0.083 on PYR1^WIN-M (cannabinoid at 2 nM); 0.08 and 0.088 and 0.087 at PYR1^WIN-M (cannabinoid at 2 μM).

Turning to `CCOP(=O)(OCC)Oc1ccc([N+](=O)[O-])cc1` [Paraoxon], the “Sensor signal (Figure 4f bottom)” value on PYR1^PIRI ([Agonist] 1e-5 nM) is 11.9047 and 18.1515 and 10.4931; on PYR1^PIRI ([Agonist] 0.5 nM) it was 11.0975 and 13.4157 and 8.837; at PYR1^PIRI ([Agonist] 1 nM), 12.5918 and 18.7436 and 9.615; on PYR1^PIRI ([Agonist] 10 nM), 11.1224 and 13.1225 and 9.775; on PYR1^PIRI ([Agonist] 100 nM), 10.0591 and 11.6876 and 14.7625; at PYR1^PIRI ([Agonist] 1000 nM) it was 10.1585 and 20.7126 and 25.0764. Further, the “Sensor signal (Figure 4f bottom)” value is 13.1804 and 18.2375 and 74.7884 on PYR1^PIRI ([Agonist] 10000 nM); 12.8083 and 10.7531 and 85.8371 at PYR1^PIRI ([Agonist] 100000 nM). Also, the “Sensor signal (Figure 4f top)” value at PYR1^DIAZI ([Agonist] 1e-5 nM) is 10.8821 and 10.8818 and 16.2674; at PYR1^DIAZI ([Agonist] 0.5 nM) it was 11.8181 and 17.5251 and 16.6639; on PYR1^DIAZI ([Agonist] 1 nM), 24.3604 and 44.2392 and 23.2398; at PYR1^DIAZI ([Agonist] 10 nM), 60.5829 and 64.6146 and 19.0156; at PYR1^DIAZI ([Agonist] 100 nM), 14.8147 and 62.8846 and 19.484; on PYR1^DIAZI ([Agonist] 1000 nM) it was 35.1388 and 74.2295 and 30.1748. In addition, the “Sensor signal (Figure 4f top)” value on PYR1^DIAZI ([Agonist] 10000 nM) is 83.5675 and 57.6349 and 70.6242; at PYR1^DIAZI ([Agonist] 100000 nM), 100.899 and 20.8486 and 98.4357.

`O=C(Nc1cccc2cccnc12)c1cn(CCCCCF)c2ccccc12` [AM2201, AM2201 8-quinolinyl carboxamide]: the “ELISA signal generation” value on PYR1^WIN-M (cannabinoid at 2 nM) was 0.169 and 0.127 and 0.144; at PYR1^WIN-M (cannabinoid at 2 μM), 0.112 and 0.114 and 0.096.

Take `CCCCCc1cc(O)c2c(c1)OC(C)(C)[C@@H]1CCC(C)=C[C@@H]21` [Δ^9-THC, tetrahydrocannabinol]: the “ELISA signal generation” value was 0.105 and 0.137 and 0.097 at PYR1^WIN-M (cannabinoid at 2 nM); 0.116 and 0.081 and 0.066 at PYR1^WIN-M (cannabinoid at 2 μM).

On to `Cc1ccc(C(=O)c2cn(CCN3CCOCC3)c3ccccc23)c2ccccc12` [JWH-193], for which the “ELISA signal generation” value is 0.065 and 0.104 and 0.068 on PYR1^WIN-M (cannabinoid at 2 nM); 0.07 and 0.084 and 0.11 at PYR1^WIN-M (cannabinoid at 2 μM).

Take `CCCCCn1cc(C(=O)N2CCN(C)CC2)c2ccccc21` [Mepirapim]: the “ELISA signal generation” value on PYR1^WIN-M (cannabinoid at 2 nM) is 0.117 and 0.158 and 0.176; on PYR1^WIN-M (cannabinoid at 2 μM) it was 0.111 and 0.116 and 0.103.

B1: PYR1-pirimi: pirimiphos-responsive octuple PYR1 mutant (K59R, S92M, N119S, S122Q, E130G, F159T, A160T, V174A) (protein, UniProt O49686 1-191, looked up, variant K59R S92M N119S S122Q E130G F159T A160T V174A)
Abscisic acid receptor PYR1: MPSELTPEERSELKNSIAEFHTYQLDPGSCSSLHAQRIHAPPELVWSIVRRFDKPQTYRHFIKSCSVEQNFEMRVGCTRDVIVISGLPANTMTERLDILDDERRVTGFSIIGGEHRLTSYKQVTTVHRFGKENRIWTVVLESYVVDMPEGNSEDDTRMTTDTVVKLNLQKLATAAEAMARNSGDGSGSQVT
In the case of B1, the “split luciferase luminescence (Fig. 4c source data)” value (“split luciferase luminescence” below) with PYR1^PIRI ([Ligand] 0.01) was 2.798 and 2.193 and 2.504; with PYR1^PIRI ([Ligand] 0.1) it was 2.824 and 1.934 and 2.89; with PYR1^PIRI ([Ligand] 1), 4.065 and 3.256 and 4.278; in the experiment with PYR1^PIRI ([Ligand] 10), 10.289 and 6.672 and 8.183; in the experiment with PYR1^PIRI ([Ligand] 100) it was 22.748 and 20.257 and 17.606; with PYR1^PIRI ([Ligand] 1000), 23.566 and 22.462 and 20.41. In addition, the “split luciferase luminescence” value in the experiment with PYR1^PIRI ([Ligand] 10000) is 23.974 and 20.5 and 20.202.

B2: PYR1-diazi: diazinon-responsive heptuple PYR1 mutant (E8G, V81Y, L87M, F108Y, M158V, F159G, A160V) (protein)
chain: MPSELTPGERSELKNSIAEFHTYQLDPGSCSSLHAQRIHAPPELVWSIVRRFDKPQTYKHFIKSCSVEQNFEMRVGCTRDYIVISGMPANTSTERLDILDDERRVTGYSIIGGEHRLTNYKSVTTVHRFEKENRIWTVVLESYVVDMPEGNSEDDTRVGVDTVVKLNLQKLATVAEAMARNSGDGSGSQVT
modifications: left off: Gal4 DNA-binding domain (from the vector pBD), end not stated, kept
For B2, the “split luciferase luminescence” value with PYR1^DIAZI ([Ligand] (uM) 0.01) is 2.821 and 4.017 and 3.928; with PYR1^DIAZI ([Ligand] (uM) 0.1), 3.172 and 4.215 and 4.029; with PYR1^DIAZI ([Ligand] (uM) 1) it was 4.479 and 4.68 and 4.503; with PYR1^DIAZI ([Ligand] (uM) 10) it was 10.058 and 10.652 and 11.029; with PYR1^DIAZI ([Ligand] (uM) 100) it was 21.801 and 16.912 and 16.034; with PYR1^DIAZI ([Ligand] (uM) 1000), 25.73 and 20.742 and 19.283. Further, the “split luciferase luminescence” value in the experiment with PYR1^DIAZI ([Ligand] (uM) 10000) is 25.492 and 21.692 and 23.422.

B3: PYR1^WIN-M: monomeric PYR1-WIN for ELISA: Y23H, D26G, K59Q, H60P, N90S, F159A, A160I (protein, UniProt O49686 1-191, looked up, variant Y23H D26G K59Q H60P N90S F159A A160I)
Abscisic acid receptor PYR1: MPSELTPEERSELKNSIAEFHTHQLGPGSCSSLHAQRIHAPPELVWSIVRRFDKPQTYQPFIKSCSVEQNFEMRVGCTRDVIVISGLPASTSTERLDILDDERRVTGFSIIGGEHRLTNYKSVTTVHRFEKENRIWTVVLESYVVDMPEGNSEDDTRMAIDTVVKLNLQKLATVAEAMARNSGDGSGSQVT
As to B3, the figures for the “LOD (lower limit of detection)” value with PYR1^WIN-M (spiked blood serum), with PYR1^WIN-M (spiked saliva) and with PYR1^WIN-M (spiked urine) were 1,105 pM, 305 pM and 515 pM, respectively.

The values are drawn from article PMC9750858, “Rapid biosensor development using plant hormone receptors as reprogrammable scaffolds” (Nature Biotechnology, 2022).
